Data published in PMC6017000, “Distribution Assessments of Coumarins from Angelicae Pubescentis Radix in Rat Cerebrospinal Fluid and Brain by Liquid Chromatography Tandem Mass Spectrometry Analysis” (Molecules : A Journal of Synthetic Chemistry and Natural …, 2018).
Read-outs that look alike come from different tables or passages of the source.

Legend:
[1] = Stability of QC samples in rat brain homogenate (freeze-thaw, room temperature); format: physicochemical; details: percentage remaining, n = 5; for Stability room temperature: room temperature 24 h; for Stability Freeze-thaw: three freeze-thaw cycles
in vitro BBB model = tested on: in vitro BBB model; design: method as in PMID 26121397; details: based on bidirectional Papp values; cited from earlier work
[2] = Rat CSF distribution after oral administration of APRE (UPLC-MS/MS)
Experimental: (§1) Aliquots of 50 μL CSF samples with IS (10 μL, 200 ng/mL) were extracted with 600 μL ethyl acetate.
(§2) The UPLC-MS/MS system consisted of a Shimadzu Nexera UPLC instrument connected to a Shimadzu LCMS-8050 mass spectrometer via the electrospray ionization interface (Shimadzu Corp., Kyoto, Japan). Samples were separated on an ACQUITY UPLC BEH RP18 column (2.1 × 100 mm, 1.7 µm, Waters, Milford, MA, USA) equipped with a BEH RP18 guard column (2.1 × 5 mm, 1.7 µm, Waters, Milford, MA, USA). The column temperature was 30 °C, and the flow rate was 0.4 mL/min. The sample injection volume was 5 µL. The mobile phases consisted of 0.1% (v/v) formic acid in water (A) and ACN (B). […] The precursor ion, product ion, Q1, Q3, CE and DT were optimized.
(§3) The time schedule included 9 time-points, and six rats were sampled at each time-point. The rats were fasted overnight with free access to water before the experiment. APRE was suspended with the normal saline and orally administered to the rats at a single dose of 4 g/kg. The animals had free access to water during the experiment.
(§4) Rats were anesthetized by an intraperitoneal dose of chloral hydrate (350 mg/kg) at 0.25, 0.5, 1, 1.5, 2, 4, 6, 8, 12 h after oral administration of APRE. A dorsal midline cutaneous incision was made, and the muscle at the craniocervical junction was bluntly dissected to expose the atlanto-occipital membrane. The cisterna magna was punctured with a thin syringe needle, and a microinjector connected with the needle was used to collect the interior CSF carefully [27]. Clear CSF was transferred to a clean microtube and frozen at −80 °C until further use. Blood contaminated samples were excluded.
(§5) Results were expressed as the mean ± standard deviation (SD). The UPLC-MS/MS data were processed with Labsolutions 5.65 software (Shimadzu Corp., Kyoto, Japan). The pharmacokinetic parameters were calculated with the Drug and Statistics 2.0 software (Mathematical Pharmacology Professional Committee of China, Shanghai, China).

[3] = Rat brain distribution after oral administration of APRE (UPLC-MS/MS); details: for log BBexpt.: log (AUC0→∞/brain/AUC0→∞/plasma), oral APRE; for log BBexpt. / Tmax / half-life: rat; for AUC0→t / AUC0→∞ / CLz/F / Vz/F: rat brain, oral APRE 4 g/kg, mean ± SD, n = 6; for Tmax / half-life: brain, po, 4 g/kg
Experimental: (§6) Each weighed brain sample was homogenized with a 2-fold volume of normal saline solution. IS solution (10 μL, 200 ng/mL) was added to 300 μL of the homogenate. The mixture was then extracted with a 3-fold volume of ethyl acetate. The mixture was vortexed for 1 min and centrifuged at 16,000× g for 10 min. The supernatant was transferred out and dried under a gentle constant flow of nitrogen. The residue was then dissolved with 100 μL of MeOH and ultrasonically (power 250 W, frequency 40 KHz) extracted for 10 min. After centrifugation at 16,000× g for 10 min, the supernatant was drawn out into a clean vial, and 5 μL of each were injected into the UPLC–MS/MS system for analysis.
(§7) The UPLC-MS/MS system consisted of a Shimadzu Nexera UPLC instrument connected to a Shimadzu LCMS-8050 mass spectrometer via the electrospray ionization interface (Shimadzu Corp., Kyoto, Japan). Samples were separated on an ACQUITY UPLC BEH RP18 column (2.1 × 100 mm, 1.7 µm, Waters, Milford, MA, USA) equipped with a BEH RP18 guard column (2.1 × 5 mm, 1.7 µm, Waters, Milford, MA, USA). The column temperature was 30 °C, and the flow rate was 0.4 mL/min. The sample injection volume was 5 µL. The mobile phases consisted of 0.1% (v/v) formic acid in water (A) and ACN (B). The LC gradient elution program and mass working parameters were the same as our previous report [6]. […] The precursor ion, product ion, Q1, Q3, CE and DT were optimized.
as §3
(§8) Cardiac perfusion was carried out quickly with physiological saline after CSF collection at each time-point. The rat brains were separated, weighed and then stored at −80 °C until treatment.
as §5

[4] = Stability of QC samples in aCSF (freeze-thaw, room temperature); format: physicochemical; details: percentage remaining, n = 5; for Stability room temperature: room temperature 24 h; for Stability Freeze-thaw: three freeze-thaw cycles
[5] = design: method as in PMID 28654868; details: rat plasma, oral APRE; cited from earlier work
[6] = rat, in vivo, po
Experimental: as §1, §2, §3, §4, §5

[7] = rat, in vivo, po; remark: listed apart in the source
Experimental: as §6, §7, §3, §8, §5

## CC(C)=CCOc1c2ccoc2cc2oc(=O)ccc12 [Compound 4, isoimperatorin]
[1]; rat brain QC 5 ng/mL
  Stability room temperature: 91.59±10.74%
  Stability Freeze-thaw: 104.96±13.66%
[1]; rat brain QC 80 ng/mL
  Stability room temperature: 88.65±10.02%
  Stability Freeze-thaw: 93.10±4.03%
[1]; rat brain QC 160 ng/mL
  Stability room temperature: 86.85±3.37%
  Stability Freeze-thaw: 89.68±3.96%
In vitro BBB model
  absorption classification across the in vitro BBB model: moderately-absorbed
[2]; rat CSF after oral APRE
  MRM response in CSF: under LLOQ
[3]
  log BBexpt.: −0.16
  AUC0→t: 15.51 ± 4.82 µg·h/kg
  AUC0→∞: 21.56 ± 14.56 µg·h/kg
  CLz/F: 52.86 ± 24.79 g/h/kg
  Vz/F: 245.44 ± 108.54 g/kg
  Tmax: 0.33 ± 0.13 h
  half-life: 3.54 ± 1.35 h

## CC=C(C)C(=O)OC(C(O)c1cc2ccc(=O)oc2cc1OC)C(C)(C)O (centres unmarked) [Compound 9, angelol B]
[4]; aCSF QC 5 ng/mL
  Stability room temperature: 97.45±4.87%
  Stability Freeze-thaw: 95.14±6.53%
[4]; aCSF QC 40 ng/mL
  Stability room temperature: 95.67±3.47%
  Stability Freeze-thaw: 95.36±7.29%
[4]; aCSF QC 80 ng/mL
  Stability room temperature: 96.66±9.22%
  Stability Freeze-thaw: 96.89±4.68%
[1]; rat brain QC 5 ng/mL
  Stability room temperature: 96.24±7.79%
  Stability Freeze-thaw: 101.51±11.81%
[1]; rat brain QC 80 ng/mL
  Stability room temperature: 97.77±8.23%
  Stability Freeze-thaw: 95.20±9.40%
[1]; rat brain QC 160 ng/mL
  Stability room temperature: 96.20±7.07%
  Stability Freeze-thaw: 102.98±8.06%
[5]
  CL in plasma: 110.26 ± 39.27 g/h/kg
  t1/2 in plasma: 6.63 ± 4.37 h
[2]; (0.48 × AUC0→∞/CSF)/(16 × AUC0→∞/plasma), rat, oral APRE
  total amount percentage of CSF/plasma: greater than 1%
[2]; rat, CSF, po, 4 g/kg
  AUC(0-inf): 28.2 ± 3.94 ng·h/mL
  AUC(0-t): 20 ± 3.35 ng·h/mL
  Cmax: 7.65 ± 4.14 ng/mL
  Tmax: 0.38 ± 0.31 h
  half-life: 7.02 ± 2.51 h
[3]
  log BBexpt.: −0.44
  AUC0→t: 21.06 ± 8.70 µg·h/kg
  AUC0→∞: 25.06 ± 8.03 µg·h/kg
  CLz/F: 301.26 ± 92.33 g/h/kg
  Vz/F: 1299.16 ± 842.00 g/kg
  Tmax: 0.29 ± 0.1 h
  half-life: 2.77 ± 1.15 h

## CC(C)=CCOc1c2occc2cc2ccc(=O)oc12 [imperatorin]
[6]
  MRM response in CSF: under LLOQ
[7]
  MRM response in brain: under LLOQ
